Data: patent US10442778B2, “N1-phenylpropane-1,2-diamine compounds with selective activity in voltage-gated sodium channels” (Merck Sharp & Dohme Corp., priority 2016, dated 2019)

Legend:
[1] = target: T1, human Nav1.7 channels stably expressed in HEK 293 cells (Homo sapiens, UniProt Q15858); assay: IonWorks Quattro automated patch-clamp, inactivated state block of Nav1.7; type: cell-based; settings: double-pulse protocol, read-out: potency for the Nav 1.7 sodium ion channel (as measured by IonWorks)
T1 construct: expressed in transfected cells; host or cells: HEK 293
Experimental: (§1) Compounds were tested on human Nav1.7 and Nav1.5 channels stably expressed in HEK 293 cells. […] Cells were sealed on a planar substrate using the Population Patch Plate (PPC) technology. Electrical access was obtained using both nystatin and amphotericin. A double-pulse protocol was used for the determination of IC50 values for inactivated state block. Nav1.7 and Nav1.5 expressing cells were voltage clamped at −100 mV and −110 mV, respectively. A depolarizing prepulse to −10 mV (Nav1.7) or −30 mV (Nav1.5) for 1000 ms followed by a 10 ms repolarization to −100 mV (Nav1.7) or −110 mV (Nav1.5) was given to generate fractional channel inactivation of ˜50%, followed by a 10 ms test pulse to −10 mV (Nav1.7) or −30 mV (Nav1.5) to measure peak current in control conditions and after compound addition. The following recording solutions were used (mM). External: 150 NaCl, 2 CaCl2, 5 KCl, 1 Mg Cl2, 10 HEPES, 12 Dextrose; internal: 120 CsF, 30 CsCl, 10 EGTA, 5 HEPES, 5 NaF, 2 MgCl2.
(§2) For all electrophysiology experiments, offline analysis was used to determine percent inhibition as a function of drug concentration. IC50 values were determined by fitting to the Hill equation.

[2] = target: T2, human Nav1.5 channels stably expressed in HEK 293 cells (Homo sapiens, UniProt Q14524); assay: IonWorks Quattro automated patch-clamp, inactivated state block of Nav1.5 (selectivity); type: cell-based; settings: IonWorks measurement, both channels in HEK 293 cells
T2 construct: expressed in transfected cells; host or cells: HEK 293
Experimental: as §1, §2

T2 sequence (Q14524 whole entry): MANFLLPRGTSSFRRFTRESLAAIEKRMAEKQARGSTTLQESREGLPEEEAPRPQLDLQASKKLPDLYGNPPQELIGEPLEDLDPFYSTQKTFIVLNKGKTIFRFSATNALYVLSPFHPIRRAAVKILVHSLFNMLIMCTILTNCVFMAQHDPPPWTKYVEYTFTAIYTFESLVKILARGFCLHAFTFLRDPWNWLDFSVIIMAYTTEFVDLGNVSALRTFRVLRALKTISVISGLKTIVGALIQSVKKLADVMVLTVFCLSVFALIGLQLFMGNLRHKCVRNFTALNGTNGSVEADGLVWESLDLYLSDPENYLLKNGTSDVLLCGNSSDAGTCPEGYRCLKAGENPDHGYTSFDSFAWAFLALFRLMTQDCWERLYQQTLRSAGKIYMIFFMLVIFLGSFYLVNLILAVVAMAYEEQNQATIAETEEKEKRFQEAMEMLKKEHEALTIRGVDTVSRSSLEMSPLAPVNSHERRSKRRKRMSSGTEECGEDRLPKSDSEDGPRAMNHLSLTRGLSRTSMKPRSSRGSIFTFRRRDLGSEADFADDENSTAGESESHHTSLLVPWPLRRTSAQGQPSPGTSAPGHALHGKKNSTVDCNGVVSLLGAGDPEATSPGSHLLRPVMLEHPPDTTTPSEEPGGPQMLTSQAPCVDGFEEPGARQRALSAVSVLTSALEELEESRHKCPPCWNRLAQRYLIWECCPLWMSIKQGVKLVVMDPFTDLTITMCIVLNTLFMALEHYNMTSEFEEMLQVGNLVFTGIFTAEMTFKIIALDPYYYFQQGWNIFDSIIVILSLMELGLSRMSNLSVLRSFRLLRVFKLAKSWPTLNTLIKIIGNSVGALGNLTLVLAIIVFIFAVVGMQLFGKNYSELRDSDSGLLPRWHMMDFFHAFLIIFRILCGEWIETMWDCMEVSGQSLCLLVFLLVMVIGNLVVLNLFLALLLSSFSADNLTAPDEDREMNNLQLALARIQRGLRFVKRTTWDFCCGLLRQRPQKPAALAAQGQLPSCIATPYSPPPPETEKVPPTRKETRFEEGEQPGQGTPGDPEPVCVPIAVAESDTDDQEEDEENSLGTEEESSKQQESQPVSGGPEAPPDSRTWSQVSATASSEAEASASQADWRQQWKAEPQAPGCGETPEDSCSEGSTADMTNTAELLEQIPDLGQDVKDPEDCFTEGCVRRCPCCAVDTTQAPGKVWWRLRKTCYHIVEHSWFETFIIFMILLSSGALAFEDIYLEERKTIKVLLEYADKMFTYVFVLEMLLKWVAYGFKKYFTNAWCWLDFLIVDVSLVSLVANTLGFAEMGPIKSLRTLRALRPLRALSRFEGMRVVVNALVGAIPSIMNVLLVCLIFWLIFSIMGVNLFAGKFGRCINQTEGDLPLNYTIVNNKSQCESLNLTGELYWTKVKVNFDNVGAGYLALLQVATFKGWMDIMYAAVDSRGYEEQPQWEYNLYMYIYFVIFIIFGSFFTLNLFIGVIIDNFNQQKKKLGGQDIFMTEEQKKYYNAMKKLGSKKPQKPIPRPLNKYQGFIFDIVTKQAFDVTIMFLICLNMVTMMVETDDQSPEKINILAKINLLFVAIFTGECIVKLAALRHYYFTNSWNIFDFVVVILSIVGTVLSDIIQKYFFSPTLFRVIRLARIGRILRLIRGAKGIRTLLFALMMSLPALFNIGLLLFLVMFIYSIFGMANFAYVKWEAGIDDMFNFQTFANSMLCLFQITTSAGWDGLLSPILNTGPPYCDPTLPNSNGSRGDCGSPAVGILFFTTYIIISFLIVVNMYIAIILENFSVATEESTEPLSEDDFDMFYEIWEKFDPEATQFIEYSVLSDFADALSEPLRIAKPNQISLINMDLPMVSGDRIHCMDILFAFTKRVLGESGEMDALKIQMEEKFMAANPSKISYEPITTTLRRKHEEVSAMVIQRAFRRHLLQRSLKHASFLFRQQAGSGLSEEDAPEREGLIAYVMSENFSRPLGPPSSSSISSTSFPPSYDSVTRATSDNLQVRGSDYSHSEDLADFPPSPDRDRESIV
T1 sequence (Q15858 whole entry): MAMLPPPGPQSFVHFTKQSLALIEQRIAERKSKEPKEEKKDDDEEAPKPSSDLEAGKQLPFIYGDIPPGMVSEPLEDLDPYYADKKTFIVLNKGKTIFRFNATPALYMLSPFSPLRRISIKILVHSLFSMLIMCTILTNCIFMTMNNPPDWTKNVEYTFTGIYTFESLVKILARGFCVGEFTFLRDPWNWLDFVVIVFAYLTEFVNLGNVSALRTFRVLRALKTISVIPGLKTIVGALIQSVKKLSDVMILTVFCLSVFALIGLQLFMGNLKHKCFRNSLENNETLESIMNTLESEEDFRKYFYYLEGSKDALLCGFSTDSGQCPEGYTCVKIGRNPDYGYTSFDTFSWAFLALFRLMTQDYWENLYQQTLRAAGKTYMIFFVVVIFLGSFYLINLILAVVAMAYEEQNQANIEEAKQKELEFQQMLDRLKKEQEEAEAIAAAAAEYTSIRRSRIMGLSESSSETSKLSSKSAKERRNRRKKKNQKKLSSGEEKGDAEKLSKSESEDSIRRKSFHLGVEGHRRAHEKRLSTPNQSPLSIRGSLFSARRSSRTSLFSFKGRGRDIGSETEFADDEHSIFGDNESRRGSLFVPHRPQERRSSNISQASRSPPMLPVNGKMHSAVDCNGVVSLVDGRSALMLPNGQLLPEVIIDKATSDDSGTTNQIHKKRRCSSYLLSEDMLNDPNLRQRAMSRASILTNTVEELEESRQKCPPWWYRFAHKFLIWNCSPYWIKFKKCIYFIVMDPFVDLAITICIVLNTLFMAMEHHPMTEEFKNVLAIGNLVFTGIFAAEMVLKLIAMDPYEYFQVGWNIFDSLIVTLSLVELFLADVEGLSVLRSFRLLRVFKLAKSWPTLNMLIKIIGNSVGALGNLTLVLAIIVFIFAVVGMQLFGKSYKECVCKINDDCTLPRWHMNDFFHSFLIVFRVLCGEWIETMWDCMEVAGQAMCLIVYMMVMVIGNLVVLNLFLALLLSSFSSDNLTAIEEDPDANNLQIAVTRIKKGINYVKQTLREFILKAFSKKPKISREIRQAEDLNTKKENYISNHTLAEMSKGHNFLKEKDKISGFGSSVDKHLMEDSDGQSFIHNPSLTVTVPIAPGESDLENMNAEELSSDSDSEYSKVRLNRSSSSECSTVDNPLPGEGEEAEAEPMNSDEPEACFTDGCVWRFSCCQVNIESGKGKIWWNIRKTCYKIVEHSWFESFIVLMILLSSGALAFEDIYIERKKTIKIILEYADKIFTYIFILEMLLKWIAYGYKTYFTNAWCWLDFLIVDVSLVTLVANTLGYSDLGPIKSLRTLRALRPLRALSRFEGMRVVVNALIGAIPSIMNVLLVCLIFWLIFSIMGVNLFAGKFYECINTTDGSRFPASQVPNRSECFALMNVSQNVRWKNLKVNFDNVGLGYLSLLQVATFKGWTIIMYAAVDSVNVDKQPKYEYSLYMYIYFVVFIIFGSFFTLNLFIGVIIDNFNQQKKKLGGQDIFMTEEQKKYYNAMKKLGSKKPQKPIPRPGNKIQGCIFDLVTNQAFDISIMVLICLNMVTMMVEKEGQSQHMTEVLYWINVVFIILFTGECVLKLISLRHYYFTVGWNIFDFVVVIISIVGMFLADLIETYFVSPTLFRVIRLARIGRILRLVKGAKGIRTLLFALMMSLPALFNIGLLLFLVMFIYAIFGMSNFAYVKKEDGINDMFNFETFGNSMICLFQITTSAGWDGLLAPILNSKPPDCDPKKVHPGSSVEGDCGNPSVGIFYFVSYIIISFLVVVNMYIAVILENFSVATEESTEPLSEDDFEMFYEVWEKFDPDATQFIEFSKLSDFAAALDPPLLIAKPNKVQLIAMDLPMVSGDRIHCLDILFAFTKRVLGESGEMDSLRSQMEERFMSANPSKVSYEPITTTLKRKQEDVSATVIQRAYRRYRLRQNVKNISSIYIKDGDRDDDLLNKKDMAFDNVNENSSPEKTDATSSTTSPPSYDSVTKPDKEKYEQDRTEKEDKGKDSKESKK

SMILES | IC50 [1] | ratio of Nav1.7 potency:Nav 1.5 potency [2]
CN[C@@H](CCc1ccccc1)CNc1cc(F)c(S(=O)(=O)Nc2ncc(F)s2)cc1Cl [Ex1-22, (S)-5-chloro-2-fluoro-N-(5-fluorothiazol-2-yl)-4-((2-(methylamino)-4-phenylbutyl)amino)-benzenesulfonamide] | 0.14 µM | > 236
CN[C@H](CNc1cc(F)c(S(=O)(=O)Nc2nccs2)cc1Cl)Cc1cccc(Br)c1 [Ex1-23, (S)-4-((3-(3-bromo-phenyl)-2-(methylamino)-propyl)amino)-5-chloro-2-fluoro-N-(thiazol-2-yl)-benzenesulfonamide] | 0.036 µM | > 917
CN[C@H](CNc1cc(F)c(S(=O)(=O)Nc2nccs2)cc1Cl)Cc1ccccc1Br [Ex1-24, (S)-4-((3-(2-bromo-phenyl)-2-(methylamino)-propyl)amino)-5-chloro-2-fluoro-N-(thiazol-2-yl)-benzenesulfonamide] | 0.44 µM | > 75
CN[C@H](CNc1cc(F)c(S(=O)(=O)Nc2ncc(F)s2)cc1Cl)Cc1ccccc1 [Ex1-27, (S)-5-chloro-2-fluoro-N-(5-fluorothiazol-2-yl)-4-((2-(methylamino)-3-phenylpropyl)amino)-benzenesulfonamide] | 0.19 µM | > 174
CN[C@H](CNc1cc(F)c(S(=O)(=O)Nc2nccs2)cc1Cl)Cc1cccc(F)c1 [Ex1-28, (S)-5-chloro-2-fluoro-4-((3-(3-fluorophenyl)-2-(methylamino)-propyl)-amino)-N-(thiazol-2-yl)-benzenesulfonamide] | 0.032 µM | > 1031
CN[C@H](CNc1cc(F)c(S(=O)(=O)Nc2nccs2)cc1Cl)Cc1ccccc1F [Ex1-29, (S)-5-chloro-2-fluoro-4-((3-(2-fluorophenyl)-2-(methylamino)-propyl)-amino)-N-(thiazol-2-yl)-benzenesulfonamide] | 0.31 µM | > 106
CN[C@H](CNc1cc(F)c(S(=O)(=O)Nc2nccs2)cc1Cl)Cc1cc(F)cc(F)c1 [Ex1-30, (S)-5-chloro-4-((3-(3,5-difluorophenyl)-2-(methyl-amino)-propyl)amino)-2-fluoro-N-(thiazol-2-yl)-benzenesulfonamide] | 0.16 µM | > 206
CN[C@H](CNc1cc(F)c(S(=O)(=O)Nc2nccs2)cc1Cl)Cc1ccc(F)c(F)c1 [Ex1-31, (S)-5-chloro-4-((3-(3,4-difluorophenyl)-2-(methyl-amino)propyl)amino)-2-fluoro-N-(thiazol-2-yl)-benzenesulfonamide] | 0.03 µM | > 1100
CN[C@H](CNc1cc(F)c(S(=O)(=O)Nc2nccs2)cc1Cl)Cc1cccc(F)c1Br [Ex1-33, (S)-4-((3-(2-bromo-3-fluorophenyl)-2-(methyl-amino)propyl)-amino)-5-chloro-2-fluoro-N-(thiazol-2-yl)-benzenesulfonamide] | 0.13 µM | > 254
CN[C@H](CNc1cc(F)c(S(=O)(=O)Nc2nccs2)cc1Cl)Cc1ccc(Cl)cc1 [Ex1-34, (S)-5-chloro-4-((3-(4-chlorophenyl)-2-(methyl-amino)propyl)amino)-2-fluoro-N-(thiazol-2-yl)-benzenesulfonamide] | 0.033 µM | > 1000
CN[C@H](CNc1cc(F)c(S(=O)(=O)Nc2ncc(F)s2)cc1Cl)CC1CCC1 [Ex2-12, (S)-5-chloro-4-((3-cyclobutyl-2-(methylamino)propyl)amino)-2-fluoro-N-(5-fluorothiazol-2-yl)benzenesulfonamide] | 1.03 µM | > 32
CN[C@H](CNc1cc(F)c(S(=O)(=O)Nc2ncc(F)s2)cc1Cl)CC12CC(C1)C2 [Ex2-13, (S)-4-((3-(bicyclo[1.1.1]pentan-1-yl)-2-(methylamino)propyl)-amino)-5-chloro-2-fluoro-N-(5-fluorothiazol-2-yl)-benzenesulfonamide] | 0.054 µM | > 611
CN[C@@H](CCC(C)(C)C)CNc1cc(F)c(S(=O)(=O)Nc2ncc(F)s2)cc1Cl [Ex2-15, (S)-5-chloro-4-((5,5-dimethyl-2-(methylamino)hexyl)amino)-2-fluoro-N-(5-fluorothiazol-2-yl)-benzenesulfonamide] | 0.67 µM | > 49
CN[C@H](CNc1cc(F)c(S(=O)(=O)Nc2nccs2)cc1Cl)CC1(C(F)(F)F)CC1 [Ex2-16, (S)-5-chloro-2-fluoro-4-((2-(methylamino)-3-(1-(trifluoromethyl)cyclopropyl)-propyl)amino)-N-(thiazol-2-yl)-benzenesulfonamide] | 0.12 µM | > 275
CN[C@H](CNc1cc(F)c(S(=O)(=O)Nc2ncc(F)s2)cc1Cl)C[Si](C)(C)C [Ex2-17, (R)-5-chloro-2-fluoro-N-(5-fluorothiazol-2-yl)-4-((2-(methylamino)-3-(trimethylsilyl)propyl)-amino)benzenesulfonamide] | 0.014 µM | > 1929
CN[C@H](CNc1cc(F)c(S(=O)(=O)Nc2ncc(F)s2)cc1Cl)CC1CC1 [Ex2-18, (S)-5-chloro-4-((3-cyclopropyl-2-(methylamino)propyl)amino)-2-fluoro-N-(5-fluorothiazol-2-yl)-benzenesulfonamide] | 0.85 µM | > 39
CN[C@@H](CCC1CC1)CNc1cc(F)c(S(=O)(=O)Nc2ncc(F)s2)cc1Cl [Ex2-19, (S)-5-chloro-4-((4-cyclopropyl-2-(methylamino)butyl)amino)-2-fluoro-N-(5-fluorothiazol-2-yl)-benzenesulfonamide] | 0.8 µM | > 41
CN[C@H](CNc1cc(F)c(S(=O)(=O)Nc2ncc(F)s2)cc1Cl)CC1CC1(C)C (stereo partly drawn) [Ex2-20, 5-chloro-4-(((2S)-3-(2,2-dimethylcyclopropyl)-2-(methylamino)propyl)amino)-2-fluoro-N-(5-fluorothiazol-2-yl)-benzenesulfonamide] | 0.068 µM | > 485
CN[C@H](CNc1cc(F)c(S(=O)(=O)Nc2ncc(F)s2)cc1Cl)CC1CC1(F)F (stereo partly drawn) [Ex2-22, 5-chloro-4-(((2S)-3-(2,2-difluorocyclopropyl)-2-(methylamino)propyl)amino)-2-fluoro-N-(5-fluorothiazol-2-yl)-benzenesulfonamide] | 1 µM | > 23
CN[C@@H](CCC1(C)CC1)CNc1cc(F)c(S(=O)(=O)Nc2ncc(F)s2)cc1Cl [Ex2-23, (S)-5-chloro-2-fluoro-N-(5-fluorothiazol-2-yl)-4-((2-(methylamino)-4-(1-methylcyclopropyl)butyl)amino)benzenesulfonamide] | 0.012 µM | > 2750
CN[C@@H](CCC1CCC1)CNc1cc(F)c(S(=O)(=O)Nc2ncc(F)s2)cc1Cl [Ex3-13, (S)-5-chloro-4-((4-cyclobutyl-2-(methylamino)butyl)amino)-2-fluoro-N-(5-fluorothiazol-2-yl)-benzenesulfonamide] | 0.3 µM | > 110
[2H]C([2H])([2H])N[C@H](CNc1cc(F)c(S(=O)(=O)Nc2ncc(F)s2)cc1Cl)CC(C)(C)C [Ex3-14, (S)-5-chloro-4-((4,4-dimethyl-2-((methyl-d3)amino)pentyl)amino)-2-fluoro-N-(5-fluorothiazol-2-yl)-benzenesulfonamide] | 0.064 µM | > 429
CN[C@H](CNc1cc(F)c(S(=O)(=O)Nc2ncc(F)s2)cc1C#N)CC(C)(C)C [Ex4-3, (S)-5-cyano-4-((4,4-dimethyl-2-(methylamino)pentyl)amino)-2-fluoro-N-(5-fluorothiazol-2-yl)benzenesulfonamide] | 0.64 µM | > 52
CN[C@H](CNc1cc(F)c(S(=O)(=O)Nc2ncc(F)s2)cc1Cl)CC1(C)CC1 [Ex6-10, (S)-5-chloro-2-fluoro-N-(5-fluorothiazol-2-yl)-4-((2-(methylamino)-3-(1-methylcyclopropyl)propyl)amino)benzenesulfonamide] | 0.34 µM | > 68
CN(C)[C@H](CNc1cc(F)c(S(=O)(=O)Nc2ncc(F)s2)cc1Cl)C[Si](C)(C)C [Ex7-2, (R)-5-chloro-4-((2-(dimethylamino)-3-(trimethylsilyl)propyl)-amino)-2-fluoro-N-(5-fluorothiazol-2-yl)benzenesulfonamide] | 0.018 µM | > 889
CCN[C@H](CNc1cc(F)c(S(=O)(=O)Nc2ncc(F)s2)cc1Cl)C[Si](C)(C)C [Ex7-4, (R)-5-chloro-4-((2-(ethylamino)-3-(trimethylsilyl)propyl)amino)-2-fluoro-N-(5-fluorothiazol-2-yl)benzenesulfonamide] | 0.003 µM | > 11000
